Source: publication PMC12446476 (Nature Communications, 2025)
“And” between values parts separate entries of the source, which are not always exact repeats. Identical values can stand only once.

Assays:
[1] = system: N. gonorrhoeae; test: In vitro selection of mutants with reduced susceptibility; format: cell-based, Neisseria gonorrhoeae
Description: N. gonorrhoeae strains were grown overnight on chocolate agar plates, as described above. […] Plates were incubated at 35 ± 2 °C in a humid 5% CO2–enriched atmosphere for 48–72 h.

[2] = system: E. coli WP2 uvrA; test: Ames assay, E. coli strain; format: cell-based
Description: Ames assays were performed using four strains of Salmonella typhimurium (TA1535, TA1537, TA98 and TA100) and a single strain of E. coli (WRP2 uvrA) in the presence and absence of S9 tissue homogenate. Dose levels (µg/plate) up to 4000 were assessed for WP2 uvrA and TA98, 500 for TA1535, 250 for TA1537 and 62.5 for TA100.

Structure (SMILES): Cc1c(CN(C)C(=O)/C=C/c2cnc3c(c2)N[C@H](C)[C@H](O)C(=O)N3)oc2ccccc12 [Debio 1453]
- Mutants (colonies) ([1]; 6804, 4x MIC): 2
- Mutants (colonies) ([1]; 6804, 8x MIC): 0
- Mutants (colonies) ([1]; 6804, 16x MIC): 0
- Mutants (colonies) ([1]; 6926, 4x MIC): 1
- Mutants (colonies) ([1]; 6926, 8x MIC): 0
- Mutants (colonies) ([1]; 6926, 16x MIC): 0
- Mutants (colonies) ([1]; ATCC 700825, 16x MIC): 0
- Mutants (colonies) ([1]; WHO Z, 4x MIC): 1
- Mutants (colonies) ([1]; WHO Z, 8x MIC): 0
- Mutants (colonies) ([1]; WHO Z, 16x MIC): 0

Structure (SMILES): Cc1c(CN(C)C(=O)/C=C/c2cnc3c(c2)N[C@H](C)[C@H](OP(=O)([O-])[O-])C(=O)N3)oc2ccccc12.[Na+].[Na+] [Debio 1453 P]
- Ames bacterial mutation assessment, Mean ([2]; with S9, 62.5 µg/plate): 32
- Colony count ([2]; with S9, 62.5 µg/plate): 33 and 34 and 28
- Ames bacterial mutation assessment, Mean ([2]; with S9, 250 µg/plate): 31
- Colony count ([2]; with S9, 250 µg/plate): 33 and 31 and 30
- Ames bacterial mutation assessment, Mean ([2]; with S9, 500 µg/plate): 34
- Colony count ([2]; with S9, 500 µg/plate): 34 and 36 and 31
- Ames bacterial mutation assessment, Mean ([2]; with S9, 1000 µg/plate): 28
- Colony count ([2]; with S9, 1000 µg/plate): 26 and 30 and 28
- Ames bacterial mutation assessment, Mean ([2]; with S9, 2000 µg/plate): 26
- Colony count ([2]; with S9, 2000 µg/plate): 27 and 26 and 25
- Ames bacterial mutation assessment, Mean ([2]; with S9, 4000 µg/plate): 25
- Colony count ([2]; with S9, 4000 µg/plate): 25 and 26 and 23
- Ames bacterial mutation assessment, Mean ([2]; without S9, 62.5 µg/plate): 32
- Colony count ([2]; without S9, 62.5 µg/plate): 31 and 30 and 36
- Ames bacterial mutation assessment, Mean ([2]; without S9, 250 µg/plate): 26
- Colony count ([2]; without S9, 250 µg/plate): 26 and 28 and 25
- Ames bacterial mutation assessment, Mean ([2]; without S9, 500 µg/plate): 25
- Colony count ([2]; without S9, 500 µg/plate): 21 and 26 and 27
- Ames bacterial mutation assessment, Mean ([2]; without S9, 1000 µg/plate): 24
- Colony count ([2]; without S9, 1000 µg/plate): 25 and 24
- Ames bacterial mutation assessment, Mean ([2]; without S9, 2000 µg/plate): 24
- Colony count ([2]; without S9, 2000 µg/plate): 21 and 25
- Ames bacterial mutation assessment, Mean ([2]; without S9, 4000 µg/plate): 22
- Colony count ([2]; without S9, 4000 µg/plate): 23 and 18 and 24
